Experimental data taken from ChEMBL document CHEMBL5233262, “Anti-inflammatory activity of naturally occuring diarylheptanoids - A review” (Bioorg Med Chem, 2021).
Values after ≈ are worked out from the molar mass of the structure shown. Each block holds one compound with its values, some of them ahead of it.

Tests used:
[1] = tested on: J774.1; assay: Antiinflammatory activity in mouse J774.1 cells assessed as inhibition of LPS-induced NO production at 100 microg/ml; assay type: functional
[2] = tested on: J774.1; assay: Cytotoxicity in mouse J774.1 cells assessed as reduction in cell viability at 100 microg/ml; assay type: toxicity, cell-based; conditions: at 100 µg/mL
[3] = tested on: J774.1; assay: Antiinflammatory activity in mouse J774.1 cells assessed as inhibition of LPS-induced NO production incubated for 48 hrs by Griess reagent based analysis; assay type: functional, cell-based; conditions: Mus musculus, J774.1, 48 h
[4] = tested on: RAW264.7; assay: Antiinflammatory activity in mouse RAW264.7 cells assessed as inhibition of KLA-induced TNFalpha expression at 0.06 mg/ml and measured after 24 hrs by ELISA; assay type: functional
[5] = tested on: Hepatocyte; assay: Hepatoprotective activity against CCL4-induced rat hepatocyte toxicity assessed as decrease in TNF-alpha level at 1 uM preincubated for 30 mins followed by CCL4 addition and measured after 180 mins by ELISA; assay type: functional; design: scale not given: the % may be the effect or the level left; conditions: time 210 min
[6] = tested on: Hepatocyte; assay: Hepatoprotective activity against CCL4-induced rat hepatocyte toxicity assessed as decrease in TBARS level by measuring MDA formation at 1 uM preincubated for 30 mins followed by CCL4 addition and measured after 180 mins by TBARS method; assay type: functional; design: scale not given: the % may be the effect or the level left; conditions: time 210 min
[7] = tested on: Hepatocyte; assay: Hepatoprotective activity against CCL4-induced rat hepatocyte toxicity assessed as decrease in ALT level at 1 uM preincubated for 30 mins followed by CCL4 addition and measured after 180 mins by colorimetric method; assay type: functional; design: scale not given: the % may be the effect or the level left; conditions: time 210 min
[8] = tested on: Hepatocyte; assay: Hepatoprotective activity against CCL4-induced rat hepatocyte toxicity assessed as decrease in IL-1beta level at 1 uM preincubated for 30 mins followed by CCL4 addition and measured after 180 mins by ELISA; assay type: functional; design: scale not given: the % may be the effect or the level left; conditions: time 210 min
[9] = tested on: BV-2; assay: Antiinflammatory activity in mouse BV-2 cells assessed as inhibition of LPS-induced NO production at 10 uM preincubated for 1 hrs followed by LPS stimulation and measured after 24 hrs by Griess assay; assay type: functional; conditions: time 25 hrs
[10] = Cytotoxicity against mouse RAW264.7 cells assessed as reduction in cell viability by MTT assay; assay type: toxicity, cell-based
[11] = tested on: RAW264.7; assay: Antiinflammatory activity in mouse RAW264.7 cells assessed as inhibition of LPS-induced NO production preincubated for 0.5 hrs followed by LPS stimulation and measured after 24 hrs by Griess reagent based analysis; assay type: functional, cell-based
[12] = tested on: Mus musculus; assay: Antiinflammatory activity in TPA-induced ear edema ICR mouse model assessed as inhibition of ear inflammation at 1 ug, TOP for 30 mins followed by TPA addition and measured after 6 hrs; assay type: functional; conditions: dose 1 µg, time 390 min, 6.5 h
[13] = tested on: Rattus norvegicus; assay: Antiinflammatory activity in Wistar rat model of carrageenan-induced paw edema assessed as reduction in paw thickness at 10 mg/kg,po and measured after 5 hrs; assay type: functional; design: scale not given: the % may be the effect or the level left
[14] = tested on: Rattus norvegicus; assay: Antiinflammatory activity in rat model of ethyl phenylpropiolate-induced ear edema assessed as reduction in ear thickness administered topically and measured after 30 mins; assay type: functional; conditions: 0.5 h
[15] = tested on: Rattus norvegicus; assay: Antiinflammatory activity in rat model of carrageenan-induced hind paw edema assessed as reduction in paw thickness at 100 mg/kg,ip 30mins before carrageenin exposure and measured after 3 hrs; assay type: functional; design: scale not given: the % may be the effect or the level left
[16] = tested on: RAW264.7; assay: Antiinflammatory activity in mouse RAW264.7 cells assessed as inhibition of LPS-induced IL-6 production at 10 uM preincubated for 2 hrs followed by LPS stimulation and measured after 24 hrs by ELISA; assay type: functional; conditions: time 26 hrs
[17] = tested on: RAW264.7; assay: Antiinflammatory activity in mouse RAW264.7 cells assessed as inhibition of LPS-induced NO production at 30 uM preincubated for 2 hrs followed by LPS stimulation and measured after 24 hrs by Griess method; assay type: functional; conditions: time 26 hrs
[18] = tested on: RAW264.7; assay: Antiinflammatory activity in mouse RAW264.7 cells assessed as inhibition of LPS-induced NO production at 100 uM preincubated for 2 hrs followed by LPS stimulation and measured after 24 hrs by Griess method; assay type: functional; conditions: time 26 hrs
[19] = tested on: RAW264.7; assay: Antiinflammatory activity in mouse RAW264.7 cells assessed as inhibition of LPS-induced TNFalpha production at 100 uM preincubated for 2 hrs followed by LPS stimulation and measured after 24 hrs by ELISA; assay type: functional; conditions: time 26 hrs
[20] = tested on: RAW264.7; assay: Antiinflammatory activity in mouse RAW264.7 cells assessed as inhibition of LPS-induced NO production at 3 uM preincubated for 2 hrs followed by LPS stimulation and measured after 24 hrs by Griess method; assay type: functional; conditions: time 26 hrs
[21] = tested on: RAW264.7; assay: Antiinflammatory activity in mouse RAW264.7 cells assessed as inhibition of LPS-induced IL-6 production at 30 uM preincubated for 2 hrs followed by LPS stimulation and measured after 24 hrs by ELISA; assay type: functional; conditions: time 26 hrs
[22] = tested on: RAW264.7; assay: Antiinflammatory activity in mouse RAW264.7 cells assessed as inhibition of LPS-induced TNFalpha production at 3 uM preincubated for 2 hrs followed by LPS stimulation and measured after 24 hrs by ELISA; assay type: functional; conditions: time 26 hrs
[23] = tested on: RAW264.7; assay: Antiinflammatory activity in mouse RAW264.7 cells assessed as inhibition of LPS-induced TNFalpha production at 30 uM preincubated for 2 hrs followed by LPS stimulation and measured after 24 hrs by ELISA; assay type: functional; conditions: time 26 hrs
[24] = tested on: RAW264.7; assay: Antiinflammatory activity in mouse RAW264.7 cells assessed as inhibition of LPS-induced NO production at 10 uM preincubated for 2 hrs followed by LPS stimulation and measured after 24 hrs by Griess method; assay type: functional; conditions: time 26 hrs
[25] = tested on: RAW264.7; assay: Antiinflammatory activity in mouse RAW264.7 cells assessed as inhibition of LPS-induced IL-6 production at 3 uM preincubated for 2 hrs followed by LPS stimulation and measured after 24 hrs by ELISA; assay type: functional; conditions: time 26 hrs
[26] = tested on: RAW264.7; assay: Antiinflammatory activity in mouse RAW264.7 cells assessed as inhibition of LPS-induced IL-6 production at 100 uM preincubated for 2 hrs followed by LPS stimulation and measured after 24 hrs by ELISA; assay type: functional; conditions: time 26 hrs
[27] = tested on: RAW264.7; assay: Antiinflammatory activity in mouse RAW264.7 cells assessed as inhibition of LPS-induced TNFalpha production at 10 uM preincubated for 2 hrs followed by LPS stimulation and measured after 24 hrs by ELISA; assay type: functional; conditions: time 26 hrs
[28] = tested on: RAW264.7; assay: Antiinflammatory activity in mouse RAW264.7 cells assessed as inhibition of LPS-induced TNFalpha production preincubated for 1 hr followed by LPS stimulation and measured after 18 hrs by immunoassay; assay type: functional, cell-based
[29] = tested on: RAW264.7; assay: Antiinflammatory activity in mouse RAW264.7 cells assessed as inhibition of LPS-induced NO production incubated for 24 hrs by Griess reagent based analysis; assay type: functional, cell-based; conditions: RAW264.7, 24 h
[30] = tested on: RAW264.7; assay: Antiinflammatory activity in mouse RAW264.7 cells assessed as inhibition of LPS-induced NF-kappaB expression preincubated for 1 hr followed by LPS stimulation and measured after 18 hrs by qPCR analysis; assay type: functional, cell-based
[31] = Antioxidant activity assessed as nitroblue tetrazolium superoxide radical scavenging activity by spectrophotometric analysis; assay type: functional
[32] = Antioxidant activity assessed as nitroblue tetrazolium superoxide radical scavenging activity incubated for 10 mins by spectrophotometric analysis; assay type: functional
[33] = tested on: Mus musculus; assay: Antiinflammatory activity in ICR mouse model of TPA-induced ear edema assessed as inhibition of ear inflammation at 1 mg,TOP for 30 mins followed by TPA addition and measured after 6 hrs; assay type: functional; conditions: time 390 min, 6.5 h
[34] = tested on: RAW264.7; assay: Antiinflammatory activity in mouse RAW264.7 cells assessed as inhibition of LPS-induced NO production for 24 hrs by Griess assay; assay type: functional, cell-based; conditions: RAW264.7, 24 h
[35] = tested on: Zingiber officinale; assay: Inhibition of prostaglandin biosynthesis in ginger; assay type: functional, organism-based
[36] = tested on: RAW264.7; assay: Antiinflammatory activity in mouse RAW264.7 cells assessed as inhibition of LPS-induced NO production; assay type: functional, cell-based
[37] = tested on: Rattus norvegicus; assay: Antiinflammatory activity in rat model of carrageenan-induced paw edema assessed as reduction in paw thickness at 10 mg/kg,ip and measured after 4 hrs; assay type: functional; design: scale not given: the % may be the effect or the level left
[38] = tested on: RAW264.7; assay: Antiinflammatory activity against mouse RAW264.7 cells assessed as inhibition of IFN-gamma and LPS-induced COX2 production preincubated for 2 hrs followed by IFN-gamma and LPS stimulation and measured after 16 hrs by spectrophotometric analysis; assay type: functional, cell-based

IC50 [3]: 39 µM
Structure (SMILES): COc1cc(O)c([C@@H](/C=C/C[C@@H](O)CCc2ccc(O)cc2)c2ccc(O)cc2)c(O)c1C(=O)/C=C/c1ccc(O)cc1
inhibition at 100 µg/mL [1]: 90%
Activity [2]: 85%

Structure (SMILES): O=C(CCc1ccccc1)C[C@@H](O)/C=C/c1ccccc1
inhibition at 60 µg/mL [4]: 37%

Structure (SMILES): COc1cc(CC[C@@H](CCCCc2cc(O)c(O)c(O)c2)OC(C)=O)cc(OC)c1O
Activity [5]: 38.6%
Activity [6]: 67.1%
Activity [7]: 61.1%
Activity [8]: 63.6%

Structure (SMILES): O=C(CCc1ccccc1)C[C@@H](O)CCc1ccccc1
inhibition at 60 µg/mL [4]: 35%

IC50 [3]: 84 µM
Structure (SMILES): COc1cc(O)c([C@H](/C=C/C[C@@H](O)CCc2ccc(O)cc2)c2ccc(O)cc2)c2oc(-c3ccc(O)cc3)cc(=O)c12 (stereo in doubt; 110)
inhibition at 100 µg/mL [1]: 90%
Activity [2]: 85%

Structure (SMILES): COC(=O)[C@@H](N)CCCNC(=N)N[N+](=O)[O-] [L-NAME]
inhibition at 10 µM [9]: 70.5%

IC50 [11]: 2900 nM
Structure (SMILES): O=C(/C=C/c1ccc(O)c(O)c1)CC/C=C/c1ccc(O)c(O)c1
IC50 [10]: 9 µM

Structure (SMILES): O=C(CCc1ccccc1)C[C@H](O)CCc1ccccc1
ID50 [12]: 2.1 µmol
Activity [13]: 6.9%

Structure (SMILES): O=C(/C=C/C=C/c1ccccc1)CCc1ccccc1
ID50 [14]: 63 µg
Activity [15]: 44%

Structure (SMILES): COc1cc([C@H]2C[C@H](O)C[C@@H]([C@@H](O)Cc3ccc(O)cc3)O2)ccc1O
inhibition at 10 µM [16]: 40%
inhibition at 30 µM [17]: 34%
inhibition at 100 µM [18]: 34%
inhibition at 100 µM [19]: 41%
inhibition at 3 µM [20]: 34%
inhibition at 30 µM [21]: 40%
inhibition at 3 µM [22]: 41%
inhibition at 30 µM [23]: 41%
inhibition at 10 µM [24]: 34%
inhibition at 3 µM [25]: 40%
inhibition at 100 µM [26]: 40%
inhibition at 10 µM [27]: 41%

IC50 [28]: 22.3 µM
IC50 [29]: 18.2 µM
IC50 [30]: 9.4 µM
Structure (SMILES): COc1ccc2cc1Oc1ccc(c(O)c1OC)CCCC[C@H](O)CC2

Structure (SMILES): Oc1ccc(CC[C@@H](O)C[C@H](O)CCc2ccc(O)cc2)cc1 [(+)-HANNOKINOL]
inhibition at 10 µM [9]: 51.3%

Structure (SMILES): Oc1ncnc2[nH]ncc12 [ALLOPURINOL]
IC50 [31]: 8 µM
IC50 [32]: 3.9 µM

IC50 [34]: 32.3 µM
IC50 [35]: 4.9 µM
IC50 [36]: 26.3 µM
IC50 [38]: 26.2 µg/mL (≈ 73.2 µM)
Structure (SMILES): COc1ccc2c(c1)c(CC(=O)O)c(C)n2C(=O)c1ccc(Cl)cc1 [INDOMETHACIN]
ID50 [33]: 0.3 mg
ID50 [12]: 0.9 µmol
Activity [37]: 55.2%
